Counter-ions that a name gives are not always drawn.

One data set is described as follows: Hygroscopicity test. The conditions noted are these: stored three weeks, room temperature, relative humidity 97%. It is filed as physicochemical. From the text: The compound of the present invention and the comparative compound were stored for three weeks under the conditions of room temperature and the relative humidity of 97%. […] On the other hand, the comparative compound had deliquesced.

The subject of a further data set is E. coli NIHJ. Kind of data set: Susceptibility test (MIC, microtiter broth dilution). It is filed as cell-based. The following applies: Escherichia coli, CAMHB, overnight at 35° C. As for the experimental part:
(§1) The compound of the present invention was dissolved in dimethyl sulfoxide and measured for the antibacterial activity (MIC) by a microtiter broth dilution method recommended by Japanese Society of Chemotherapy.
(§2) Staphylococcus aureus (S. aureus Smith, FDA209P, F-3095), Enterococcus faecalis (E. faecalis D-2648) and Escherichia coli (E. coli NIHJ) were used as the bacteria.
(§3) The bacterial cells, grown overnight on a Mueller-Hinton agar: MHA plate at 35° C., were suspended in a sterilized physiological saline so as to be a 0.5 McFarland equivalent standard. The cell suspension was diluted ten-fold to prepare an inoculum. Approximately 0.005 mL of the inoculum was inoculated into a cation-adjusted Mueller-Hinton broth (CAMHB), 100 μL/well containing the test substance and allowed to grow overnight at 35° C. The lowest concentration of the test substance at which no bacterial growth was observed by the naked eye was determined as MIC.

In another data set the test system is E. faecalis D-2648. The data set is described as above. It is filed as cell-based. The conditions noted are these: Enterococcus faecalis, D2648. The procedure:
as §1, §2, §3

A further data set concerns S. aureus F-3095. The data set is described as above. It is filed as cell-based. The following applies: Staphylococcus aureus, F3095. The procedure:
as §1, §2, §3

A further data set relates to S. aureus FDA209P. The data set is described as above. The conditions noted are these: Staphylococcus aureus, CAMHB, overnight at 35° C. It is filed as cell-based. The procedure: as §1, §2, §3
In a further data set the test system is S. aureus Smith. The data set is described as above. It counts as cell-based. The conditions noted are these: Staphylococcus aureus, CAMHB, overnight at 35° C. As for the experimental part: as §1, §2, §3
Data set [1] in a line: Solubility in phosphate buffer solution. It counts as physicochemical. The following applies: aqueous buffer, thermodynamic from solid; 0.2 mol/L phosphate buffer solution (pH 6.5), 25° C., shaken 48 hours.

For the compound `O=c1ccc2ncc(F)cc2n1CCN1CCC(NCc2cc3c(cn2)OCCO3)CC1` [Comparative Example 1, 1-(2-(4-((2,3-dihydro(1,4)dioxino(2,3-c)pyridin-7-ylmethyl)amino)piperidin-1-yl)ethyl)-7-fluoro-1,5-naphthyridin-2(1H)-one trihydrochloride, reference compound], in “Hygroscopicity test” (trihydrochloride), the “Appearance after storage (hygroscopicity / deliquescence)” value is on record as “deliquesced”.

As usually defined, the MIC is the lowest concentration found to suppress growth. A lower MIC goes with inhibition by little substance. As a reminder, the solubility is how much of the substance goes into solution per volume. Low readings indicate a poorly soluble substance, high ones a readily soluble substance. Take `O=c1ccc2ncc(F)cc2n1CCN1CCC(NCc2cc3c(cn2)OCCO3)CC1` [Example 16, 1-(2-(4-((2,3-dihydro(1,4)dioxino(2,3-c)pyridin-7-ylmethyl)amino)piperidin-1-yl)ethyl)-7-fluoro-1,5-naphthyridin-2(1H)-one monohydrate]: the MIC against E. coli NIHJ came to 0.125 µg/mL; in the data set on E. faecalis D-2648 it was 0.25 µg/mL; against S. aureus F-3095, 0.0313 µg/mL; in the data set on S. aureus FDA209P, 0.0313 µg/mL; against S. aureus Smith, 0.0625 µg/mL. For the same compound, the “Appearance after storage (hygroscopicity / deliquescence)” value in the data set “Hygroscopicity test” (monohydrate) is given as “powder with no apparent change”. For the same compound, the solubility at 48 h in data set [1] is 21.2 mg/mL.

The values above are taken from patent US8354426B2, “Naphthyridine derivative monohydrate and method for producing the same” (Toyama Chemical Co., Ltd., priority 2007, dated 2013).
